Results: patent US20210236657A1, “NERVE-SPECIFIC FLUOROPHORE FORMULATIONS FOR DIRECT AND SYSTEMIC ADMINISTRATION” (OREGON HEALTH & SCIENCE UNIVERSITY, priority 2018, published 2021)

Columns and labels:
[1] = test system: brachial plexus and sciatic nerves; test: Fluorescence imaging time course after systemic administration; format: in vivo, mice; conditions: 2 mg/kg, 24 hours after systemic administration, all formulations
Source text: Drug release pharmacokinetics (PK) and biodistribution (BioD) studies were completed in mice systemically administered DSPE-PEG micelle, cyclodextrin or co-solvent formulated LGW01-08 for equivalent comparison, explained as follows. […] Following blood collection via cardiac puncture, fluorescence and color images were acquired of the brain, lungs, liver, stomach, intestines, pancreas, spleen, kidney, bladder, brachial plexus, and sciatic nerves (n=3 mice per time point per formulation). Additionally, brain, lung, heart, liver, and kidney tissues were collected for liquid chromatography mass spectroscopy (LCMS/MS) analysis (n=5 mice per time point per formulation). The pharmacokinetic parameters were calculated from blood uptake kinetics data by non-compartmental analysis using Phoenix 64 (Certara, Princeton, N.J.), including the area under the concentration versus time curve from 0 to ∞ (AUC0-∞), plasma volume of distribution (Vd), clearance (CL) and half-life (t1/2). Nerve specific contrast and tissue biodistribution intensities were assessed for all initial testing, PK, BioD, and PD studies using the intraoperative fluorescence imaging systems to collect images of the nerves and surrounding tissue as well as the additional tissues for biodistribution assessment. Additional unstained control animals were imaged to assess tissue autofluorescence. […]

[2] = Pharmacokinetics and biodistribution by LCMS/MS; format: in vivo, mice; conditions: 2 mg/kg
Description: Drug release pharmacokinetics (PK) and biodistribution (BioD) studies were completed in mice systemically administered DSPE-PEG micelle, cyclodextrin or co-solvent formulated LGW01-08 for equivalent comparison, explained as follows. Formulated LGW1-08 was injected at a 2 mg/kg dose and blood collection was completed at the time points of 0, 0.5, 1, 2, 4, 8, and 24 hours post injection (n=5 mice per time point per formulation). Following blood collection via cardiac puncture, fluorescence and color images were acquired of the brain, lungs, liver, stomach, intestines, pancreas, spleen, kidney, bladder, brachial plexus, and sciatic nerves (n=3 mice per time point per formulation). Additionally, brain, lung, heart, liver, and kidney tissues were collected for liquid chromatography mass spectroscopy (LCMS/MS) analysis (n=5 mice per time point per formulation). The pharmacokinetic parameters were calculated from blood uptake kinetics data by non-compartmental analysis using Phoenix 64 (Certara, Princeton, N.J.), including the area under the concentration versus time curve from 0 to ∞ (AUC0-∞), plasma volume of distribution (Vd), clearance (CL) and half-life (t1/2).

[3] = LGW01-08 solubility and loading in formulations (spectrophotometric quantification); format: physicochemical
Description: Based on the solubility of the nerve specific dye, liposomes sphingomyelin cholesterol (55:45), a FDA approved lipid mix was considered first for encapsulation of the agent as the lipid vesicles have both the lipid bilayer and hydrophilic core. Two common methods for preparation of liposomes are passive and pH gradient method. For passive loading method, both LGW01-08 and lipids were dissolved in a mixture of chloroform and methanol (70:30) and subjected to rotary evaporation under vacuum. […]
The next delivery platform which could increase the solubility of the nerve dye without compromising the nerve specificity was micelles. […] Commercially available (A-B-A block), PLURONIC® ethylene oxide-propylene oxide block co-polymer capable of self-assembly to form micelle was evaluated for encapsulating the nerve dye. […] The supernatant was passed through a 0.22μ filter and analyzed for nerve dye loading.
In order to achieve higher encapsulation, two more polymeric micelle platforms: Poly(ethylene glycol)(2 k)-block-poly(D,L-lactic acid) (1.8 k) (PEG-b-PLA) and Distearyl-phosphatidylethanolamine-PEG2000 (DSPE-PEG) were evaluated. […] Triplicate samples were prepared for quantification by diluting the complex 100-fold in 10% triton solution. […]
HP-β-CD complex was prepared by the solvent casting method. […] Triplicate samples were prepared for quantification by diluting the complex 100-fold in 10% triton solution. […]

[4] = test system: brachial plexus and sciatic nerves; test: Formulation nerve-specificity screening after systemic administration; format: in vivo, mice; conditions: preclinical mouse models
Description: Ox4 and LGW01-08 solubilized in each formulation were screened in mice following systemic administration for nerve specificity. 200 nmol of LGW01-08 in 100 μL of the four prepared formulations were administered intravenously to n=3 mice 4 hours before nerve imaging. The four hour fluorophore to imaging window had been previously shown to provide the highest nerve to background tissue fluorescence for Oxazine 4 and several other nerve specific fluorophores. Gibbs-Strauss et al. Molecular imaging 10, 91-101 (2011); Park et al. Theranostics 4, 823-833 (2014); Barth & Gibbs. Theranostics 7, 573-593 (2017). Uninjected animals were used for all control images (n=3 mice or 12 nerve sites/formulation).
Intraoperative Fluorescence Imaging Systems. A custom-built small animal imaging system capable of real-time color and fluorescence imaging was used to acquire rodent in vivo images. The imaging system consisted of a QImaging EXi Blue monochrome camera (Surrey, British Columbia, CA) for fluorescence detection with a removable Bayer filter for collecting co-registered color and fluorescence images. […] For fluorescence excitation, the PhotoFluor II was filtered with a 620±30 nm bandpass excitation filter. Resulting fluorescence was collected with a 700±37.5 nm bandpass emission filter for image collection. […] Camera exposure times ranged from 10-2000 ms for fluorescence image collection. […]

[5] = test system: brachial plexus and sciatic nerves; test: Dose ranging pharmacodynamics imaging studies; format: in vivo, mice; conditions: two hours post injection
Description: Following PK studies to assess the maximum nerve signal to background ratio (SBR) for LGW1-08 in each formulation (2 hours), dose response pharmacodynamic (PD) studies were completed in mice using a dose range up to the MTD: 0.1, 0.2, 0.3, 0.6, 1, 1.5, 2, 2.5, and 3 mg/kg (n=3 mice per dose per formulation).
Nerve specific contrast and tissue biodistribution intensities were assessed for all initial testing, PK, BioD, and PD studies using the intraoperative fluorescence imaging systems to collect images of the nerves and surrounding tissue as well as the additional tissues for biodistribution assessment. Additional unstained control animals were imaged to assess tissue autofluorescence.
Custom written MatLab code was used to analyze the tissue specific fluorescence where regions of interest (ROIs) were selected using the white light images. These ROIs were then analyzed on the co-registered matched fluorescence images permitting assessment of the mean tissue intensities and nerve signal to background ratios. Intensity measurements were divided by the exposure time to obtain normalized intensity per second measurements.

[6] = test system: nerve; conditions: Park et al. Theranostics 4, 823-833 (2014); cited from earlier work
[7] = DSPE-PEG micelle and cyclodextrin formulations

Compound | nerve fluorescence signal intensities [1] | blood concentrations over time ([2]; all formulations) | LGW01-08 cleared from the tissue ([2]; by 4 hours post injection) | solubility [3] | nerve specificity following systemic administration [4] | nerve SBRs across all doses tested ([5]; 0.1-3 mg/kg) | dose at which fluorescence intensity values were highest [5, 7] | fluorescence intensity values at the 0.1 mg/kg dose [5, 7] | dose up to which nerve to adipose background ratios increased [5] | dose up to which nerve to muscle background ratios increased [5] | nerve specificity [6]
CCNc1cc2oc3cc(=[N+](CC)CC)ccc-3nc2cc1C [LGW1-08, N-ethyl-N-(7-(ethylamino)-8-methyl-3H-phenoxazin-3-ylidene)ethanaminium] | close to baseline autofluorescence levels | decreased quickly | 90-99% | 250 µg/mL | high nerve specificity | No significant difference | 2.5 mg/kg | decreased to autofluorescence levels | 1.5 mg/kg | 0.6 mg/kg | –
Oxazine 4 perchlorate | – | – | – | – | – | – | – | – | – | – | high nerve-specificity
